Test results: ChEMBL document CHEMBL1201862, “PubChem BioAssay data set” (2004)
Blank lines part the entries; values can stand above or below the compound they belong to. Active and inactive are the calls of the source.

Legend:
Large T antigen = Large T antigen (Simian virus 40, UniProt P03070); assay type: functional, Betapolyomavirus macacae;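 note: Confirmatory-stage PubChem screen for compounds that inhibit SV40 T antigen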
[1] = molecular target: T1, Dual specificity protein phosphatase 6 (Rattus norvegicus, UniProt Q64346); assay type: functional
T1 sequence (Q64346 whole entry): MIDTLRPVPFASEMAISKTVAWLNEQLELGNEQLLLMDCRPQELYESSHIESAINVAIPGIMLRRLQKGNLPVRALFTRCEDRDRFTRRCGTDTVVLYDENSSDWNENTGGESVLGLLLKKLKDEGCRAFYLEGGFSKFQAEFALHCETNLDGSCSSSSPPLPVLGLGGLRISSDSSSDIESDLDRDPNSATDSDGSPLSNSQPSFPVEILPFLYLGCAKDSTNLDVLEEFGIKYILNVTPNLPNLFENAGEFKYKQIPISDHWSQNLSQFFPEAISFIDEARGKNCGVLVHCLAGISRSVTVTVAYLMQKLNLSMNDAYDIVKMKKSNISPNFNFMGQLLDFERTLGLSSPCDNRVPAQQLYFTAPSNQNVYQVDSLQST

[2] = molecular target: T2, DNA dC->dU-editing enzyme APOBEC-3G (Homo sapiens, UniProt Q9HC16); assay: SAR analysis of small molecule inhibitors of APOBEC3G DNA Deaminase via a fluorescence-based single-stranded DNA deaminase assay - Set 2.; assay type: functional; conditions: read-out: IC50_Mean
[3] = molecular target: T1, Dual specificity protein phosphatase 6; assay: inhibition of rat DUSP6 enzyme activity – biochemical, in vitro, primary screen (AID 425)
[4] = molecular target: T3, Zinc finger protein mex-5 (Caenorhabditis elegans, UniProt Q9XUB2); assay: potency of MEX-5 RNA-binding blockers – biochemical, C. elegans, fluorescence polarization, dose response (AID 1960)
T3 sequence (Q9XUB2 whole entry): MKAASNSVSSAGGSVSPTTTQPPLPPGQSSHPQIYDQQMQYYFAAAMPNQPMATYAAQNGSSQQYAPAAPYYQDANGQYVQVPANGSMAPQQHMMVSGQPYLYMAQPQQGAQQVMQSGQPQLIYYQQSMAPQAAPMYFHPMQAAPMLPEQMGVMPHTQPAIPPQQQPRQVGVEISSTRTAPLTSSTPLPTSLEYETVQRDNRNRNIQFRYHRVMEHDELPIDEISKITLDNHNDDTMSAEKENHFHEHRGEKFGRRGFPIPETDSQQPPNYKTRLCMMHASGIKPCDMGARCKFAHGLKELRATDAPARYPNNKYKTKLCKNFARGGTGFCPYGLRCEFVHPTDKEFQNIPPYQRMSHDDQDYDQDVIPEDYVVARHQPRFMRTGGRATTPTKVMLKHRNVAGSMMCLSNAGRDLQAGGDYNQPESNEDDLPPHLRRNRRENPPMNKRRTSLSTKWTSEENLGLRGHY

[5] = molecular target: Induced myeloid leukemia cell differentiation protein Mcl-1 (Homo sapiens, UniProt Q07820); assay type: functional
[6] = molecular target: T4, Tyrosine-protein phosphatase non-receptor type 7 (Homo sapiens, UniProt P35236); assay type: functional
T4 sequence (P35236 whole entry): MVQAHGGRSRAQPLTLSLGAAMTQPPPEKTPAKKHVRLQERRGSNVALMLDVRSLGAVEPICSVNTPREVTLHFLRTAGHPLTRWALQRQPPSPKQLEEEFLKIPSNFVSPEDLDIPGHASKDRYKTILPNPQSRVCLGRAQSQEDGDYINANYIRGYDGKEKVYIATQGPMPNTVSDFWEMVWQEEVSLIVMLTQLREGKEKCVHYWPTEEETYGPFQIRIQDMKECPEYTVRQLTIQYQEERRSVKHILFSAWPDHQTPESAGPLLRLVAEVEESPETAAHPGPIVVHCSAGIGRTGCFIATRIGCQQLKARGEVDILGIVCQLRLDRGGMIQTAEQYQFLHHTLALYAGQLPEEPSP

[7] = molecular target: Glyceraldehyde-3-phosphate dehydrogenase (Homo sapiens, UniProt P04406)
[8] = molecular target: Heat shock cognate 71 kDa protein (Homo sapiens, UniProt P11142); assay: In Vitro Hsc70 Dose Response Fluorescence Polarization Assay. [Related pubchem assays: 1072 ]
[9] = molecular target: T2, DNA dC->dU-editing enzyme APOBEC-3G; assay: inhibition of APOBEC3G ssDNA deamination – biochemical, fluorescence, single-stranded DNA substrate, SAR follow-up (AID 602136); assay type: functional; conditions: read-out: IC50_Mean
[10] = molecular target: T5, DNA dC->dU-editing enzyme APOBEC-3A (Homo sapiens, UniProt P31941); assay: SAR analysis of small molecule inhibitors of APOBEC3A DNA Deaminase via a fluorescence-based single-stranded DNA deaminase assay - Set 2.; assay type: functional; conditions: read-out: IC50_Mean
[11] = molecular target: T6, RNA-binding protein pos-1 (Caenorhabditis elegans, UniProt G5EF15); assay: disruptors of C. elegans POS-1 RNA interaction – biochemical, fluorescence polarization, dose response (AID 1964);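 note: purified POS-1 fused to maltose binding protein made in E. coli; potency of compounds blocking POS-1 binding to fluorescent RNA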
T6 sequence (G5EF15 whole entry): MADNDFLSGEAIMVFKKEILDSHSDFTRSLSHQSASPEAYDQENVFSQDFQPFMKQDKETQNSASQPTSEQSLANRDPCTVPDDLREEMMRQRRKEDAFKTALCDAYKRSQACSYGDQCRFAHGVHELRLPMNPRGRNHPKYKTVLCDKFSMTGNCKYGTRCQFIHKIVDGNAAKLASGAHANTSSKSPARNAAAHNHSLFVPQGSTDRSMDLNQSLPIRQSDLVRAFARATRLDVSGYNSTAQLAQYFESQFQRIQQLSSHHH

[12] = molecular target: Heat shock 70 kDa protein 1A (Homo sapiens, UniProt P0DMV8); assay: inhibition of Hsp70 binding activity – biochemical, fluorescence polarization, SAR follow-up (AID 1072)
[13] = molecular target: Eukaryotic translation initiation factor 4E (Mus musculus, UniProt P63073); assay: blockers of eIF4G binding by eIF4E – biochemical, TR-FRET, dose response (AID 855); assay type: functional;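 note: potency for disrupting eIF4E binding to eIF4GI seen as loss of FRET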
[14] = molecular target: T5, DNA dC->dU-editing enzyme APOBEC-3A; assay: SAR analysis of small molecule inhibitors of APOBEC3A DNA Deaminase via a fluorescence-based single-stranded DNA deaminase assay.; assay type: functional; conditions: read-out: IC50_Mean
Bcl-2-like protein 10 = molecular target: T7, Bcl-2-like protein 10 (Homo sapiens, UniProt Q9HD36); assay: Bcl-B/TR3 peptide binding disruption – biochemical, fluorescence polarization, FITC-TR3 peptide, selectivity assay for Bfl-1 inhibitor project, primary screen (AID 748);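 note: fluorescence polarization from a fluorescein-labelled TR3 peptide binding purified Bcl-B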
T7 sequence (Q9HD36 whole entry): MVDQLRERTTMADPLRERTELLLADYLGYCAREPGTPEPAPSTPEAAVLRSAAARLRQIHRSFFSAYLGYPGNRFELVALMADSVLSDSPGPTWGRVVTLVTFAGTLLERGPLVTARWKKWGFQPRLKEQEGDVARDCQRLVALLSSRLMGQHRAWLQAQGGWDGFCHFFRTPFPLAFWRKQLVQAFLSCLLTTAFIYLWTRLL

[15] = molecular target: T1, Dual specificity protein phosphatase 6
[16] = SAR analysis of small molecule activators of Apaf-1 using a LZ-Caspase-9/Caspase-3 Fluorescent Selectivity assay - Set 2.; assay type: functional; conditions: read-out: EC50_Mean
[17] = molecular target: T8, Apoptotic protease-activating factor 1 (Homo sapiens, UniProt O14727); assay: SAR analysis of small molecule Activators of Apaf-1 in a Fluorescent assay - set 2.; assay type: functional; conditions: read-out: EC50_Mean
T8 sequence (O14727 whole entry): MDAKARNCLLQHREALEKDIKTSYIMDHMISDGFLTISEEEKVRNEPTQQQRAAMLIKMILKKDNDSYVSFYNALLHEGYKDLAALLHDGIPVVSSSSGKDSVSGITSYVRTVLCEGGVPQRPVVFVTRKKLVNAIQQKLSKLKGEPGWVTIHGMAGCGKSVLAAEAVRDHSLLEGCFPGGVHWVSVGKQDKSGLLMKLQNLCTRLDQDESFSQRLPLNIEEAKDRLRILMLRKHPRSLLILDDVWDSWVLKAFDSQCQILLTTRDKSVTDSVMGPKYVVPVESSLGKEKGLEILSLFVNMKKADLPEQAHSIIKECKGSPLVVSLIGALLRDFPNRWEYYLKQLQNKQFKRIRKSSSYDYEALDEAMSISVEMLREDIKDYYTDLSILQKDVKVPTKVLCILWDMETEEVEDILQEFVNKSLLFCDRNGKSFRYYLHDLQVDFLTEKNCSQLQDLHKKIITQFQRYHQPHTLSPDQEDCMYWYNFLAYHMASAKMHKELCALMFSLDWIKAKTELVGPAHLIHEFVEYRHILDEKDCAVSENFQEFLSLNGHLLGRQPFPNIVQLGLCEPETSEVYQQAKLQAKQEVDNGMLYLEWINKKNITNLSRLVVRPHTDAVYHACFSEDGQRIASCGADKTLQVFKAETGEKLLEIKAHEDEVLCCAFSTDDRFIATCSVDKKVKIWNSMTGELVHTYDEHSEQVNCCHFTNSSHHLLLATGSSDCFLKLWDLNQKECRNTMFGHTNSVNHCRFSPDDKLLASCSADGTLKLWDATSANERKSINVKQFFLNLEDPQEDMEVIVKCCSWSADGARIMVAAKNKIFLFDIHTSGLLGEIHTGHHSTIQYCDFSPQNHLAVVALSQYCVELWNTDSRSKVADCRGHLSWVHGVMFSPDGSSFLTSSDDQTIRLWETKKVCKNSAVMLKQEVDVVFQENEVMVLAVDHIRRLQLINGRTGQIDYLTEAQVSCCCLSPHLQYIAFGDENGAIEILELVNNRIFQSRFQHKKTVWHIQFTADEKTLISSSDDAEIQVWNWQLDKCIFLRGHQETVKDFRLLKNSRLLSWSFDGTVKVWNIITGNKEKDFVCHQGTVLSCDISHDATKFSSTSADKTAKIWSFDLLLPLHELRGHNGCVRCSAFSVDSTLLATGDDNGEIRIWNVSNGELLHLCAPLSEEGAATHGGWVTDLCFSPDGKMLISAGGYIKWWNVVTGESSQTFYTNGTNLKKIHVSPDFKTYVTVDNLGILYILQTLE

T2 sequence (Q9HC16 whole entry): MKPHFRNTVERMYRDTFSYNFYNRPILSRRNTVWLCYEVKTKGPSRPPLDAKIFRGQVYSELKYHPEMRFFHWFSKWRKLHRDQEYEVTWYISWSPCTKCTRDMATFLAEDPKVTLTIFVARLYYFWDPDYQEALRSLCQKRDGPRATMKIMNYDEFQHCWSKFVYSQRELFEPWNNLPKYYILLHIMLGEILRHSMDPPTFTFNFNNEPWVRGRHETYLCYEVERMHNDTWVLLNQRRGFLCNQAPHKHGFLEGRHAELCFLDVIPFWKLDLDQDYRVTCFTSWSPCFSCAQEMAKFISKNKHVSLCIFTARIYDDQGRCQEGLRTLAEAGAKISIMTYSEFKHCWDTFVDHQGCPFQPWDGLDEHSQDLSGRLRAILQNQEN
T5 sequence (P31941 whole entry, the tested form may be a part): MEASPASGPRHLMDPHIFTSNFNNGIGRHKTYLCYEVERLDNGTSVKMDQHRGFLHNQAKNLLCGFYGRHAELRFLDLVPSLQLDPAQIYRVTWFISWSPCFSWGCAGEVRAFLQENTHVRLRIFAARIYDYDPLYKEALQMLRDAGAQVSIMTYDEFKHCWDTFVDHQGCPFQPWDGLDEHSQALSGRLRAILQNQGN
Sequence of Heat shock cognate 71 kDa protein (P11142 whole entry): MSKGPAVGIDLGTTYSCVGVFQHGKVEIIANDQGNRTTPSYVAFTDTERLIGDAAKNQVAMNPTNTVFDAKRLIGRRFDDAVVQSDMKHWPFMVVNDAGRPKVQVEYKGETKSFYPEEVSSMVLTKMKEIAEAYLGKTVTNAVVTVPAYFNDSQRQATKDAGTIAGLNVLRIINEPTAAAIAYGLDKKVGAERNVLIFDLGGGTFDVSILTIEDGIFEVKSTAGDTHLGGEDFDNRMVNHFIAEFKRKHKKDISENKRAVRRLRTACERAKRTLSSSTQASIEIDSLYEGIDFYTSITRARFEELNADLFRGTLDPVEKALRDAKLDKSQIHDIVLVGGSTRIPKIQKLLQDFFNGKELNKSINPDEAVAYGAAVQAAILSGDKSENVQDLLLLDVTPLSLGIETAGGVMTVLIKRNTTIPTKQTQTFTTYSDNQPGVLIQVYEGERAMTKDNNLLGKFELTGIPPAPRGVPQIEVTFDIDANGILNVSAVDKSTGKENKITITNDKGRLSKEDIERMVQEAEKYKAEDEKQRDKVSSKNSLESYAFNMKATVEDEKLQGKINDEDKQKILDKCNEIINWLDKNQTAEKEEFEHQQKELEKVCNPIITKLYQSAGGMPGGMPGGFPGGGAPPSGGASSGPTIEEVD
Sequence of Glyceraldehyde-3-phosphate dehydrogenase (P04406 whole entry): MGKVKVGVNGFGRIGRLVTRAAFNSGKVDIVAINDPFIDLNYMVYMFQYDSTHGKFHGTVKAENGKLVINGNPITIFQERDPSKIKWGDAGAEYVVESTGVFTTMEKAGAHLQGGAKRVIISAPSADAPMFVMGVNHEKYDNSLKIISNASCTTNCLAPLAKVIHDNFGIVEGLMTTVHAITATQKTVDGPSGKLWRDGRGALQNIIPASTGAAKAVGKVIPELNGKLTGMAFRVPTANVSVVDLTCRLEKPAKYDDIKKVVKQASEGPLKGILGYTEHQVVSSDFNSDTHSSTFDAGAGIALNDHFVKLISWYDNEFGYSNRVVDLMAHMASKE
Sequence of Induced myeloid leukemia cell differentiation protein Mcl-1 (Q07820 whole entry): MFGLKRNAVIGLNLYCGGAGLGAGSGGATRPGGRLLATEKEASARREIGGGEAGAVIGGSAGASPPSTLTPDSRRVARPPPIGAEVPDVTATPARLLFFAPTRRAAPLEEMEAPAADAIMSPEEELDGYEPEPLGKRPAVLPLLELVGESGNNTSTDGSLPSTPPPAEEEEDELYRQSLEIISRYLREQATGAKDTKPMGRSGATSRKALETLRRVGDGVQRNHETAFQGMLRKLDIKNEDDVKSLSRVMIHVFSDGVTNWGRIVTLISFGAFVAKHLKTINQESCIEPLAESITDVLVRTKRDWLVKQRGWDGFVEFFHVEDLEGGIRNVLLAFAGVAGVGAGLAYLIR
Sequence of Eukaryotic translation initiation factor 4E (P63073 whole entry): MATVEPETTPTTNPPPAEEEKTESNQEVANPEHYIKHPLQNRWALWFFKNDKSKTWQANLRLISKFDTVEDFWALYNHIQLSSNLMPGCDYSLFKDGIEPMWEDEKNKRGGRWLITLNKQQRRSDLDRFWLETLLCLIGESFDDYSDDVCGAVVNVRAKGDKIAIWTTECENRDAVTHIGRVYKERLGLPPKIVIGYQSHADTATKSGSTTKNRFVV
Sequence of Heat shock 70 kDa protein 1A (P0DMV8 whole entry): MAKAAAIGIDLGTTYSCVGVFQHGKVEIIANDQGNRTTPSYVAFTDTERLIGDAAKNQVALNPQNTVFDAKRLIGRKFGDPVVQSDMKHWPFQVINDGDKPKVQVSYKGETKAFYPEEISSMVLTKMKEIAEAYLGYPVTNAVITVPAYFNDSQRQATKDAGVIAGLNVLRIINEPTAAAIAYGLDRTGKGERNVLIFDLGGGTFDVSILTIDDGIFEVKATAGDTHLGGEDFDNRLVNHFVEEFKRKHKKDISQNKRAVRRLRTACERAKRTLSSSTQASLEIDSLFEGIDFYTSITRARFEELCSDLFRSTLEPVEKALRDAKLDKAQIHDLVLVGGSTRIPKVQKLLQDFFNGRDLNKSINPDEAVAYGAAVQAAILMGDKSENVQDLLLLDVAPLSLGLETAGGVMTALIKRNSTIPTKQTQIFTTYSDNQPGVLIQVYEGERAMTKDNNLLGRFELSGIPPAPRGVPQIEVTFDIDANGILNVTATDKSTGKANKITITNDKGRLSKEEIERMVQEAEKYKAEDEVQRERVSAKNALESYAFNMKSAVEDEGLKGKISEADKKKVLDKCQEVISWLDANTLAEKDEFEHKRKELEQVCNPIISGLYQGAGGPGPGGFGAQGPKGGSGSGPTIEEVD
Sequence of Large T antigen (P03070 whole entry): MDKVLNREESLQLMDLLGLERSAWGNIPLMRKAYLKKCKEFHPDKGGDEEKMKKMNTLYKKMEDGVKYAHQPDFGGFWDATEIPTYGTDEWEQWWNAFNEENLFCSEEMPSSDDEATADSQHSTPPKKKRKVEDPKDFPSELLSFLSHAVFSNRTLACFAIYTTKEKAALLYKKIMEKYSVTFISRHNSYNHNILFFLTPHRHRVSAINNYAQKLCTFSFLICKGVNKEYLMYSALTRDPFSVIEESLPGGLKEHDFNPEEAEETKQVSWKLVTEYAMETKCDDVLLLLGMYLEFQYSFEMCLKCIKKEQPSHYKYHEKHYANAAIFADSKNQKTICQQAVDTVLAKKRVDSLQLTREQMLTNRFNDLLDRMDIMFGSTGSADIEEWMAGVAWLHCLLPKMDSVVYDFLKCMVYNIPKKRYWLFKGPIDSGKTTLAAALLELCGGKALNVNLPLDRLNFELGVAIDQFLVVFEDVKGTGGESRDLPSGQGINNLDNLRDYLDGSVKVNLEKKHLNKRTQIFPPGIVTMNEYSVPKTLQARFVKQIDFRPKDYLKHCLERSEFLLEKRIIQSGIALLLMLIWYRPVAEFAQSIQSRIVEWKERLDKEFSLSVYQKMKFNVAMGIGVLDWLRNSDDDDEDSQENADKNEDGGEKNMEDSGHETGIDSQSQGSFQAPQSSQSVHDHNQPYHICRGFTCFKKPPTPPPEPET

SMILES: Cc1ccc2c(c1C)NC(C(=O)O)C1CC=CC21 (centres undefined)
IC50 (Large T antigen): 91.4 µM (active) | IC50 [1]: 5.96 µM (active) | IC50 [2]: 0.858 µM (active) | IC50 [3]: > 10 µM (not active) | EC50 [4]: 21.7 µM (active) | IC50 [5]: 3.17 µM (active) | IC50 [6]: 5.43 µM (active) | IC50 [7]: 80.8 µM (active) | IC50 [8]: 21.9 µM (active) | IC50 [9]: 30.3 µM (inactive) | IC50 [10]: 1.7 µM (active) | EC50 [11]: 37.4 µM (active) | IC50 [12]: 7.18 µM (active) | IC50 [13]: 8.68 µM (active) | IC50 [14]: 6.55 µM (active) | IC50 (Bcl-2-like protein 10): 1.89 µM (active) | IC50 [15]: 6.2 µM (active)

EC50 [16]: > 100 µM (inactive) | EC50 [17]: > 100 µM (inactive)
SMILES: O=C(O)C1CC(c2ccccc2O)=NO1 (centres undefined)
